Data set [1] in a line: Cytotoxicity in HepG2 cells, Resazurin assay. The settings on record: human, HepG2 cells, TOX-HepG2-4 d CC50 (μM), HepG2 cells incubated for 4 days, viability by Resazurin assay.
Data set [2] concerns HBV. The data set can be described thus: anti HBV activity, HepG2.117 cell line, intracellular HBV DNA by realtime PCR. The class given is cell-based. The settings on record: HepG2.117 cell line (Tet-off), 3 days of treatment, intracellular HBV DNA quantified by realtime PCR, read-out: HBV-AVE-HepG2.117 EC50. The procedure: The anti HBV activity was measured using the HepG2.117 cell line, a stable, inducibly HBV producing cell line, which replicates HBV in the absence of doxicycline (Tet-off system). For the antiviral assay, HBV replication was induced, followed by a treatment with serially diluted compound in 96-well plates in duplicate. After 3 days of treatment, the antiviral activity was determined by quantification of intracellular HBV DNA using realtime PCR and an HBV specific primer set and probe.

Where [3] appears, read: Hepatitis B virus, HepG2.117, 72 h.

Like-named read-outs stand apart in the source and are kept apart here.

The text below walks through data of patent US10875876B2, “Cyclized sulfamoylarylamide derivatives and the use thereof as medicaments for the treatment of hepatitis B” (priority 2015, dated 2020).

In the case of `Cc1cc(CC2(C)COc3c(cn(C)c3C(=O)Nc3ccc(F)c(F)c3)S(=O)(=O)N2)no1` (racemic) [Compound 162, N-(3,4-difluorophenyl)-3,7-dimethyl-3-[(5-methylisoxazol-3-yl)methyl]-1,1-dioxo-2,4-dihydropyrrolo[3,4-b][1,4,5]oxathiazepine-6-carboxamide], the CC50 (as a rule, the concentration giving 50% cytotoxicity) at 4 days in data set [1] was over 25 µM. The EC50 – broadly, the concentration needed to bring the measured effect to its halfway point – in data set [2] (setting [3]) is 3 nM.
Consider `CC(C)[C@H]1Oc2c(cn(C)c2C(=O)Nc2ccc(F)c(C#N)c2)S(=O)(=O)N[C@@H]1CO` [compound 239], for which, in data set [1], the CC50 at 4 days was over 25 µM. Moreover, in data set [2] (setting [3]), the EC50 was over 500 nM.
With `CC1NS(=O)(=O)c2cn(C)c(C(=O)Nc3ccc(F)c(F)c3)c2OC1C` (centres unmarked) [Compound 28, N-(3,4-difluorophenyl)-3,4,7-trimethyl-1,1-dioxo-3,4-dihydro-2H-pyrrolo[3,4-b][1,4,5]oxathiazepine-6-carboxamide], in data set [1], the CC50 at 4 days is over 25 µM. In data set [2] (setting [3]), the EC50 worked out at 890 nM.
For the compound `C[C@H]1CCc2c(cn(C)c2C(=O)Nc2ccnc(Br)c2)S(=O)(=O)N1` (single isomer, unassigned) [Compound 57, (3*S)—N-(2-bromo-4-pyridyl)-3,7-dimethyl-1,1-dioxo-2,3,4,5-tetrahydropyrrolo[3,4-f]thiazepine-6-carboxamide], in data set [1], the CC50 at 4 days was over 25 µM. Further, in data set [2] (setting [3]), the EC50 came out at 13 nM.
The corresponding values for `CCC(O)[C@@H]1COc2c(cn(C)c2C(=O)Nc2ccc(F)c(F)c2)S(=O)(=O)N1` (stereo in doubt) [Compound 142b, N-(3,4-difluorophenyl)-3-(1-hydroxypropyl)-7-methyl-1,1-dioxo-3,4-dihydro-2H-pyrrolo[3,4-b][1,4,5]oxathiazepine-6-carboxamide] are over 25 µM and over 125 nM.
`Cn1cc2c(c1C(=O)Nc1ccc(F)c(F)c1)OC[C@H](C(O)C1CC1)NS2(=O)=O` (stereo partly drawn) [Compound 105a, (3R)-3-[cyclopropyl(hydroxy)methyl]-N-(3,4-difluorophenyl)-7-methyl-1,1-dioxo-3,4-dihydro-2H-pyrrolo[3,4-b][1,4,5]oxathiazepine-6-carboxamide] showed a CC50 at 4 days in data set [1] of over 25 µM. The EC50 in data set [2] (setting [3]) turned out to be 7 nM.
As to `C[C@H]1NS(=O)(=O)c2cn(C)c(C(=O)Nc3ccc(F)c(F)c3)c2O[C@@H]1C` [compound 231], the CC50 at 4 days in data set [1] was over 25 µM. Also, the EC50 in data set [2] (setting [3]) is over 500 nM.
`C[C@@H](O)[C@H]1CCc2c(cn(C)c2C(=O)Nc2ccc(F)c(F)c2)S(=O)(=O)N1` [Compound 70, (3R)—N-(3,4-difluorophenyl)-3-[(1R)-1-hydroxyethyl]-7-methyl-1,1-dioxo-2,3,4,5-tetrahydropyrrolo[3,4-f]thiazepine-6-carboxamide] registered a CC50 at 4 days in data set [1] of over 25 µM. For the same compound, the EC50 in data set [2] (setting [3]) came out at 14 nM.
Regarding `COC(C)(C)C1COc2c(cn(C)c2C(=O)Nc2ccc(F)c(F)c2)S(=O)(=O)N1` (centres unmarked) [Compound 80, N-(3,4-difluorophenyl)-3-(1-methoxy-1-methyl-ethyl)-7-methyl-1,1-dioxo-3,4-dihydro-2H-pyrrolo[3,4-b][1,4,5]oxathiazepine-6-carboxamide], in data set [1], the CC50 at 4 days was over 25 µM. The EC50 in data set [2] (setting [3]) was determined as 18 nM.
In the case of `C[C@@H](O)[C@H]1COc2c(cn(C)c2C(=O)Nc2ccc(F)c(F)c2)S(=O)(=O)N1` [Compound 33, (3R)—N-(3,4-difluorophenyl)-3-[(1R)-1-hydroxyethyl]-7-methyl-1,1-dioxo-3,4-dihydro-2H-pyrrolo[3,4-b][1,4,5]oxathiazepine-6-carboxamide], in data set [1], the CC50 at 4 days was over 25 µM. Also, the EC50 in data set [2] (setting [3]) came to 53 nM.
Regarding `Cn1cc2c(c1C(=O)Nc1ccc(F)c(C#N)c1F)CCC(C(C)(C)O)NS2(=O)=O` (centres unmarked) [Compound 185, N-(3-cyano-2,4-difluoro-phenyl)-3-(1-hydroxy-1-methyl-ethyl)-7-methyl-1,1-dioxo-2,3,4,5-tetrahydropyrrolo[3,4-f]thiazepine-6-carboxamide], the CC50 at 4 days in data set [1] was over 25 µM. Further, in data set [2] (setting [3]), the EC50 turned out to be 41 nM.
The corresponding values for `Cn1cc2c(c1C(=O)Nc1ccc(F)c(F)c1)OCC(C(O)c1cccnc1)NS2(=O)=O` (centres unmarked) [Compound 95, N-(3,4-difluorophenyl)-3-[hydroxy(3-pyridyl)methyl]-7-methyl-1,1-dioxo-3,4-dihydro-2H-pyrrolo[3,4-b][1,4,5]oxathiazepine-6-carboxamide] are over 25 µM and 22 nM.
On the same counts, the results for `Cn1cc2c(c1C(=O)Nc1ccc(F)c(F)c1)OC[C@@H](C(O)C(F)(F)F)NS2(=O)=O` (stereo partly drawn) [Compound 123, (3S)—N-(3,4-difluorophenyl)-7-methyl-1,1-dioxo-3-(2,2,2-trifluoro-1-hydroxy-ethyl)-3,4-dihydro-2H-pyrrolo[3,4-b][1,4,5]oxathiazepine-6-carboxamide] are over 25 µM and 19 nM.
On the same counts, the results for `C[C@H](O)[C@@H]1COc2c(cn(C)c2C(=O)Nc2ccc(F)c(F)c2)S(=O)(=O)N1` [Compound 37, (3S)—N-(3,4-difluorophenyl)-3-[(1S)-1-hydroxyethyl]-7-methyl-1,1-dioxo-3,4-dihydro-2H-pyrrolo[3,4-b][1,4,5]oxathiazepine-6-carboxamide] are over 25 µM and 200 nM.
The compound `Cn1cc2c(c1C(=O)Nc1ccc(F)c(C#N)c1)CCC1(COC1)NS2(=O)=O` [Compound 138, N-(3-cyano-4-fluoro-phenyl)-7-methyl-1,1-dioxo-spiro[4,5-dihydro-2H-pyrrolo[3,4-f]thiazepine-3,3′-oxetane]-6-carboxamide] gave a CC50 at 4 days in data set [1] of over 25 µM. In data set [2] (setting [3]), the EC50 is 29 nM.
Consider `Cn1cc2c(c1C(=O)Nc1ccc(F)c(F)c1)OC[C@@H]([C@@H](O)c1ccccc1)NS2(=O)=O` [Compound 63, (3S)—N-(3,4-difluorophenyl)-3-[(S)-hydroxy(phenyl)methyl]-7-methyl-1,1-dioxo-3,4-dihydro-2H-pyrrolo[3,4-b][1,4,5]oxathiazepine-6-carboxamide], for which the CC50 at 4 days in data set [1] was over 25 µM. Besides, in data set [2] (setting [3]), the EC50 is 240 nM.
As for `COCC1(CO)CCc2c(cn(C)c2C(=O)Nc2ccc(F)c(F)c2)S(=O)(=O)N1` (centres unmarked) [Compound 202, N-(3,4-difluorophenyl)-3-(hydroxymethyl)-3-(methoxymethyl)-7-methyl-1,1-dioxo-4,5-dihydro-2H-pyrrolo[3,4-f]thiazepine-6-carboxamide], the CC50 at 4 days in data set [1] was over 25 µM. The EC50 in data set [2] (setting [3]) was found to be 25 nM.
`CC1COc2c(cn(C)c2C(=O)Nc2ccc(F)c(F)c2)S(=O)(=O)N1` (single isomer, unassigned) [Compound 14a, N-(3,4-difluorophenyl)-3,7-dimethyl-1,1-dioxo-3,4-dihydro-2H-pyrrolo-[3,4-b][1,4,5]oxathiazepine-6-carboxamide] yielded a CC50 at 4 days in data set [1] of over 25 µM. The EC50 in data set [2] was 250 nM.
As to `CC(C)C1CCc2c(cn(C)c2C(=O)Nc2ccc(F)c(F)c2)S(=O)(=O)N1` (centres unmarked) [Compound 81, N-(3,4-difluorophenyl)-3-isopropyl-7-methyl-1,1-dioxo-2,3,4,5-tetrahydropyrrolo[3,4-f]thiazepine-6-carboxamide], in data set [1], the CC50 at 4 days is over 25 µM. Besides, the EC50 in data set [2] (setting [3]) is 2 nM.
The corresponding values for `Cn1cc2c(c1C(=O)Nc1ccc(F)c(F)c1)OCC1(COC1)NS2(=O)=O` [Compound 24, N-(3,4-difluorophenyl)-7-methyl-1,1-dioxo-spiro[2,4-dihydropyrrolo-[3,4-b][1,4,5]oxathiazepine-3,3′-oxetane]-6-carboxamide] are over 25 µM and 68 nM.
In turn, `Cn1cc2c(c1C(=O)Nc1ccc(F)c(F)c1)OCC(C)(c1ncccn1)NS2(=O)=O` (racemic) [Compound 153, N-(3,4-difluorophenyl)-3,7-dimethyl-1,1-dioxo-3-pyrimidin-2-yl-2,4-dihydropyrrolo[3,4-b][1,4,5]oxathiazepine-6-carboxamide] registered a CC50 at 4 days in data set [1] of over 25 µM. In addition, the EC50 in data set [2] (setting [3]) was 68 nM.
`Cn1cc2c(c1C(=O)Nc1ccc(F)c(F)c1)OCC(C)(Cc1cccnc1)NS2(=O)=O` (single isomer, unassigned) [Compound 199a, N-(3,4-difluorophenyl)-3,7-dimethyl-1,1-dioxo-3-(3-pyridylmethyl)-2,4-dihydropyrrolo[3,4-b][1,4,5]oxathiazepine-6-carboxamide]: the cytotoxic concentration (CC50) at 4 days in data set [1] is over 25 µM. For the same compound, the EC50 in data set [2] amounted to 30 nM.
In data set [1], `Cn1cc2c(c1C(=O)Nc1ccc(F)c(F)c1)CCNS2(=O)=O` [Compound 13, N-(3,4-difluorophenyl)-6-methyl-1,1-dioxo-3,4-dihydro-2H-pyrrolo-[3,4-e]thiazine-5-carboxamide] registered a CC50 at 4 days of over 25 µM. In data set [2] (setting [3]), the EC50 worked out at 110 nM.
On to `Cn1cc2c(c1C(=O)Nc1cc(F)c(F)c(F)c1)OC[C@H](C(O)C1CC1)NS2(=O)=O` (single isomer, unassigned) [Compound 208a, 3-[cyclopropyl(hydroxy)methyl]-7-methyl-1,1-dioxo-N-(3,4,5-trifluorophenyl)-3,4-dihydro-2H-pyrrolo[3,4-b][1,4,5]oxathiazepine-6-carboxamide], for which, in data set [1], the CC50 at 4 days was over 25 µM. For the same compound, the EC50 in data set [2] (setting [3]) was found to be 8 nM.
`CCC1(C)COc2c(cn(C)c2C(=O)Nc2ccc(F)c(F)c2)S(=O)(=O)N1` (single isomer, unassigned) [Compound 134a, N-(3,4-difluorophenyl)-3-ethyl-3,7-dimethyl-1,1-dioxo-2,4-dihydropyrrolo[3,4-b][1,4,5]oxathiazepine-6-carboxamide]: the CC50 at 4 days in data set [1] is over 25 µM. The EC50 in data set [2] (setting [3]) is 8 nM.
